Experimental data taken from PMC11752117 (Journal of Traditional and Complementary Medicine, 2024).
Read-outs that look alike come from different tables or passages of the source.

Settings: for concentration in plasma (molar) / concentration in plasma / concentration in lung tissue: 4 h after administration, respective extract 1000 mg/kg p.o.; for concentration in plasma / concentration in lung tissue: mean ± SD; for calculated concentration in lung tissue (molar): on the basis of lung water content approximately 80 % by weight
[1] = Day 1, infected hamsters, n = 4

SMILES	concentration in plasma (molar) (Day 1)	concentration in plasma [1]	concentration in lung tissue (Day 1)	calculated concentration in lung tissue (molar) (Day 1)	concentration in plasma (molar) (Day 3)	concentration in lung tissue (Day 3)	concentration in plasma (Day 3)	calculated concentration in lung tissue (molar) (Day 3)	concentration in plasma (molar) (Day 7)	concentration in lung tissue (Day 7)	concentration in plasma (Day 7)	calculated concentration in lung tissue (molar) (Day 7)	average concentrations in lung tissue (range over sampling days, respective extract 1000 mg/kg/day p.o.)
C=C1CC[C@@H]2[C@](C)(CO)[C@H](O)CC[C@@]2(C)[C@@H]1C/C=C1/C(=O)OC[C@H]1O [Andrographolide, andrographolide]	~5.48 µM	1921.3 ± 508.4 ng/mL	0.750 ± 0.206 µg/g	1.72 µM	~5.51 µM	0.800 ± 0.144 µg/g	1930.1 ± 257.7 ng/mL	1.83 µM	~8.01 µM	0.850 ± 0.181 µg/g	2808.1 ± 547.4 ng/mL	~1.94 µM	
COc1cc(O)c(C(=O)[C@@H]2[C@H](CC=C(C)C)C(C)=CC[C@H]2c2ccccc2)c(O)c1 [Panduratin A, panduratin A]	~4.21 µM	1710.4 ± 284.3 ng/mL	0.186 ± 0.015 µg/g	0.37 µM	~7.27 µM	0.262 ± 0.047 µg/g	2954.1 ± 582.1 ng/mL	0.52 µM					0.19 to 0.26 µg/g
